How the values were obtained:
5×FAD mice = assay: Aβ monomer Western blot and filter trap assay of brain lysates; format: in vivo, mouse; settings: brain tissue lysates, 6e10 Western blot
Description: To investigate the soluble and insoluble Aβ components, two extraction steps were performed. Left hemisphere samples were homogenized at a concentration of 100 mg/mL in cold Tris-buffered saline (TBS consisting of 50 mM Tris-pH 7.5 and 150 mM NaCl) with a protease inhibitor cocktail (Thermo Fisher Scientific, Waltham, MO, USA). After centrifugation at 15,000 rpm for 1 hour at 4° C., the supernatant of the sample was used for western blotting. Insoluble proteins were extracted from the pellet by dissolving in 5 M guanidine buffer (5 M guanidine HCl and 150 mM NaCl-pH 7.5). Soluble and insoluble protein samples were stored at −80° C.
The insoluble fraction of the protein lysate from 5×FAD mice was diluted in 1% SDS-PBS and boiled at 95° C. for 5 min. The membrane was pre-equilibrated with 1×TBS. A dot blotter apparatus (Bio-Rad Laboratories, Hercules, CA, USA) was used for sample application, and the 6e10 antibody was used to detect the Aβ content in the brain lysate from 5×FAD mice treated with DTMB. The sample size was 3 mice per group.

PPARγ = target: T1, PPARγ (Homo sapiens, UniProt P37231); assay: GAL4-transactivation assay in HEK293A cells, PPARγ; format: cell-based; settings: GAL4 reporter, 24 h, compared with rosiglitazone
T1 construct: expressed in transfected cells; host or cells: HEK293A
T1 sequence (P37231 1-505): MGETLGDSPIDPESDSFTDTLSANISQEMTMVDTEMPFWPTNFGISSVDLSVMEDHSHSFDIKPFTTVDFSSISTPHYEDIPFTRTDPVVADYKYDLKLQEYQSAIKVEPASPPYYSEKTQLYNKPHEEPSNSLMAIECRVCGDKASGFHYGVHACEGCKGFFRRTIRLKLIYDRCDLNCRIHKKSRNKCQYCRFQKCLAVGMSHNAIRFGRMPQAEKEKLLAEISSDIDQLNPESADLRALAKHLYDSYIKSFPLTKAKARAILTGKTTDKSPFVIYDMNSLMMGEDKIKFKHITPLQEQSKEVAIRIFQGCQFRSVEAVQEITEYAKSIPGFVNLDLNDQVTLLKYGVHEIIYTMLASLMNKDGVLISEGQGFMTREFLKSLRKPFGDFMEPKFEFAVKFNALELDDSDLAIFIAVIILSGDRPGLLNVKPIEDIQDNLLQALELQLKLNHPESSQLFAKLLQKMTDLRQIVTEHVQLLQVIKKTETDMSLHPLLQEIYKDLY
Description: A GAL4-transactivation assay experiment was performed to determine whether the drug was bound to the PPAR ligand binding site. HEK293A cells were transfected with GAL4-reporter plasmid and pGL4.74 (Promega, Madison, WI, USA) as an internal standard via electroporation using the Neon Transfection System (Invitrogen, Carlsbad, CA, USA). All vectors were kindly provided by Professor Kanno Yuichiro, Toho University, Japan. After overnight culture, cells were treated with DTMB and each positive control compound for 24 h. Cells were then harvested, resuspended in luciferase lysis buffer (Promega), and incubated on ice for 10 min. Cell debris was removed by centrifugation at 20,000×g, 4° C. for 10 min, and the supernatant was used for the luciferase assay. Luciferase activity was measured using the Dual Luciferase Reporter Assay System (Promega) according to the manufacturer's instructions. In the measurement experiment, firefly luciferase activity was normalized to Renilla luciferase activity. To investigate the concentration-dependent effect of DTMB drug, EC50 values were measured by treating various concentrations of DTMB.

[1] = target: T2, HIS-tagged recombinant PPAR β/δ protein (Homo sapiens, UniProt Q03181); assay: CNBr-drug and protein binding experiment, PPARβ/δ; settings: Western blotting after 24 h incubation
T2 sequence (Q03181 211-439 limits assumed): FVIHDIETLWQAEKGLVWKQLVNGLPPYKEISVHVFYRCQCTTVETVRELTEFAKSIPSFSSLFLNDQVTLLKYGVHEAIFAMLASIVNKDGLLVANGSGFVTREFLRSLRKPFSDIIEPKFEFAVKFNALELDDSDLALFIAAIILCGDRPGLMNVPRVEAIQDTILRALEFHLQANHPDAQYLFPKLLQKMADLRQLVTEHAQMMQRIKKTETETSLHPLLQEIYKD
Description: Since the computer prediction program predicted that DTMB binds to PPAR transcription factors, CNBr-drug and protein binding experiments were conducted to confirm whether DTMB actually binds to PPAR. To determine the actual degree of drug-protein binding, the reaction of the protein of the PPAR-α, β/δ, γ ligand-binding portion with the DTMB drug-bound CNBr beads was confirmed through Western blotting.
Specifically, CNBr Sepharose 4B beads were prepared and activated according to the instructions. 100 mg of CNBr-activated Sepharose 4B beads were incubated with drugs or DMSO at 4° C. for 18 h. The drug-bound beads reacted with HIS-tagged recombinant PPAR α, β/δ, and γ proteins. After 24 h of incubation, Western blotting experiments were performed to confirm whether the recombinant proteins bound to the drug-bound beads.

RAW 264.7 cell line = assay: Cell viability assay (MTT), RAW 264.7; format: cell-based; settings: RAW 264.7, 48 h, at higher concentrations
Description: Cell viability was measured by a chromogenic assay that biologically reduces 3-(4,5-dimethyl-thiazol-2-yl)-2,5-diphenyltetrazolium bromide (MTT) to formazan in living cells. Briefly, cells were cultured in 96-well plates in a final volume of 100 μL. After 24 h, the culture medium was replaced with fresh medium containing DTMB compound, and the cells were cultured for another 48 h. Next, MTT (dissolved in PBS at 5 mg/mL) was added to the culture medium. The cells were cultured in the dark at 37° C. for 1 h, and then the supernatant was removed from the wells. The formazan crystals were dissolved by adding total MTT solvent (4 mM HCl and 0.1% Nonidet P-40, both dissolved in isopropanol), and the absorbance was measured at 570 nm using a microplate reader, Infinite 200 Pro NanoQuant microplate reader (TECAN, Switzerland).

COc1ccc(-c2cc(=O)oc3c(C)c(OC(=O)[C@H](Cc4c[nH]c5ccccc45)NC(=O)OC(C)(C)C)ccc23)cc1 [DTMB, [4-(4-Methoxyphenyl)-8-methyl-2-oxochromen-7-yl](2S)-3-(1H-indol-3-yl)-2-[(2-methylpropan-2-yl)oxycarbonylamino]propanoate]
Amyloid β monomers (5×FAD mice): not reduced | PPARγ activation versus positive control (PPARγ): activated at a slightly higher concentration than GW501516 and rosiglitazone, respectively | Binding of PPARβ/δ ligand-binding protein to drug-bound CNBr beads [1]: binds to all subtypes of PPAR | Cytotoxicity (MTT) (RAW 264.7 cell line): no cytotoxicity

— patent US20260053778A1, “USE OF NOVEL PPAR ACTIVITY MODULATOR FOR PREVENTION, AMELIORATION OR TREATMENT OF DEGENERATIVE BRAIN DISEASES” (POSTECH RESEARCH AND BUSINESS DEVELOPMENT FOUNDATION, priority 2022, published 2026)
